Calls of active or inactive are those of the source. The calls are words filed in the database; no cut-off is given here.
Key:
[1] = target: T1, Xanthine dehydrogenase/oxidase (Homo sapiens, UniProt P47989); assay: Inhibition of XOD (unknown origin) using xanthine as substrate at 1 uM preincubated for 30 mins followed by xanthine addition measured after 30 mins by microplate reader relative to control; conditions: 0.5 h, time 60 min
[2] = test system: Rattus norvegicus; assay: Antiarthritic activity against MSU-induced Sprague-Dawley rat OA model assessed as inflammation index at 10 mg/kg, ig administered for 3 days; type: functional; conditions: time 3 day
[3] = test system: Rattus norvegicus; assay: Antiarthritic activity against MSU-induced Sprague-Dawley rat OA model assessed as reduction in ASC mRNA expression level in tissue joint at 10 mg/kg, ig administered for 3 days by qRT-PCR analysis; type: functional, organism-based; conditions: time 3.0 day
[4] = test system: Rattus norvegicus; assay: Antiarthritic activity against MSU-induced Sprague-Dawley rat OA model assessed as reduction in NLRP3 mRNA expression level in tissue joint at 10 mg/kg, ig administered for 3 days by qRT-PCR analysis; type: functional, organism-based; conditions: time 3.0 day
[5] = test system: Rattus norvegicus; assay: Antiarthritic activity against MSU-induced Sprague-Dawley rat OA model assessed as dysfunction index at 10 mg/kg, ig administered for 3 days; type: functional; conditions: time 3 day
[6] = test system: Rattus norvegicus; assay: Antiarthritic activity against MSU-induced Sprague-Dawley rat OA model assessed as toe swelling volume variation at 10 mg/kg, ig administered for 3 days; type: functional; conditions: time 3 day
[7] = test system: Rattus norvegicus; assay: Antiarthritic activity against MSU-induced Sprague-Dawley rat OA model assessed as reduction in Caspase-1 mRNA expression level in tissue joint at 10 mg/kg, ig administered for 3 days by qRT-PCR analysis; type: functional, organism-based; conditions: time 3.0 day
[8] = test system: Rattus norvegicus; assay: Antiarthritic activity against MSU-induced Sprague-Dawley rat OA model assessed as inflammation index at 1 mg/kg, ig administered for 3 days; type: functional, organism-based; conditions: time 3.0 day
[9] = test system: Rattus norvegicus; assay: Antiarthritic activity against MSU-induced Sprague-Dawley rat OA model assessed as toe swelling volume variation at 1 mg/kg, ig administered for 3 days; type: functional, organism-based; conditions: time 3.0 day
[10] = test system: Rattus norvegicus; assay: Antiarthritic activity against MSU-induced Sprague-Dawley rat OA model assessed as reduction of serum TNF-alpha protein expression level at 10 mg/kg, ig administered for 3 days by ELISA; type: functional, organism-based; conditions: time 3.0 day
[11] = test system: Rattus norvegicus; assay: Antiarthritic activity against MSU-induced Sprague-Dawley rat OA model assessed as dysfunction index at 1 mg/kg, ig administered for 3 days; type: functional, organism-based; conditions: time 3.0 day
[12] = target: T1, Xanthine dehydrogenase/oxidase; assay: Inhibition of XOD (unknown origin) using xanthine as substrate preincubated for 30 mins followed by xanthine addition measured after 30 mins by microplate reader
[13] = test system: Mus musculus; assay: Hypouricemic activity in hypoxanthine/potassium oxonate-induced hyperuricemic Kunming mouse model assessed as decrease in serum XOD level at 10 mg/kg, po administered for 7 days measured 4 hrs post last dose by automatic biochemical analyzer; type: functional, organism-based; conditions: time 7.0 day
[14] = test system: Mus musculus; assay: Hypouricemic activity in hypoxanthine/potassium oxonate-induced hyperuricemic Kunming mouse model assessed as decrease in liver XOD level at 10 mg/kg, po administered for 7 days measured 4 hrs post last dose by automatic biochemical analyzer; type: functional, organism-based; conditions: time 7.0 day

T1 sequence (P47989 whole entry): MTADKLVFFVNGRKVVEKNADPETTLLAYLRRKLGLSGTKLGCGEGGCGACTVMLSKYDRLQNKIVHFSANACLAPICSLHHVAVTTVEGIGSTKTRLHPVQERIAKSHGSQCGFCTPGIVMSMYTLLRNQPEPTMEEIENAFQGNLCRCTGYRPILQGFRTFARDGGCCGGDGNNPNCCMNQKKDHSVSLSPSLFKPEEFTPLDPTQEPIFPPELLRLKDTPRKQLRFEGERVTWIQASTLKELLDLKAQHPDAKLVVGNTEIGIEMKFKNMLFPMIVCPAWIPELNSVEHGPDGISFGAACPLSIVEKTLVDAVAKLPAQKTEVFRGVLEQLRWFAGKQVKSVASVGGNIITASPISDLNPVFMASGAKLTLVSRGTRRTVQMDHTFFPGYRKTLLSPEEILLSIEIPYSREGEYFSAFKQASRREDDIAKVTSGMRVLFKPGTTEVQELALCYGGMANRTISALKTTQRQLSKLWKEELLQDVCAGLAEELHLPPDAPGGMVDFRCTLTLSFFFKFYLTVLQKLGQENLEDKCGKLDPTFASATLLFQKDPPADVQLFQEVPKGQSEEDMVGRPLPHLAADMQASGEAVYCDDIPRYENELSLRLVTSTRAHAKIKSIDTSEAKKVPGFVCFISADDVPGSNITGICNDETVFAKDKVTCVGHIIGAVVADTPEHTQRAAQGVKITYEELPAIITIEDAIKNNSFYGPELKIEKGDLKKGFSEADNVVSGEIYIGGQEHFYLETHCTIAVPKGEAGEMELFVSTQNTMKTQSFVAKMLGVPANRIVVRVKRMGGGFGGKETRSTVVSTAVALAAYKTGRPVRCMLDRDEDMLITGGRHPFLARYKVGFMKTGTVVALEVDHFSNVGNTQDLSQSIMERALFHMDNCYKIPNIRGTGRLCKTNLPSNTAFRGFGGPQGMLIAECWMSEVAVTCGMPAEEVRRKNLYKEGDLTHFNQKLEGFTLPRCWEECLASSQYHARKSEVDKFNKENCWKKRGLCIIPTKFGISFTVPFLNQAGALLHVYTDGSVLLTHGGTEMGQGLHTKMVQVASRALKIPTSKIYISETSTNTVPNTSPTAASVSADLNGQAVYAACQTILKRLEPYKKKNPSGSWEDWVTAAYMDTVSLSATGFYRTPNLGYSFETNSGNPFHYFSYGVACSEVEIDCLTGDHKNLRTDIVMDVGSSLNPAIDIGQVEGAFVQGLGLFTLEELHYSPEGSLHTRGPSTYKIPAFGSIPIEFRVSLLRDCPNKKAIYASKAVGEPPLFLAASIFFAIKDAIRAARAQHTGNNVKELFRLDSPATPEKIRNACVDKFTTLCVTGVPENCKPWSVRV

COc1cc2c(cc1OC)C(Cc1ccc(O)cc1)N(C)CC2 (configuration not stated)
inhibition at 1 µM [1]: < 20%

CC1(C)C=Cc2cc(-c3cc(=O)c4c(O)cc(O)cc4o3)ccc2O1
inhibition at 1 µM [1]: < 20%

COc1cc2c(c(OC)c1OC)-c1ccc(OC)c(=O)cc1[C@@H](NC(C)=O)CC2 [COLCHICINE]
Activity_index [2]: 0.6 | Activity [3]: Active | Activity [4]: Active | Activity_index [5]: 0 | Activity [6]: 0.03 mL | Activity [7]: Active | Activity [8]: Active | Activity [9]: Active | Activity [10]: Active | Activity [11]: Active

COc1cc(O)c2c(=O)cc(-c3cc(OC)c(OC)c(OC)c3)oc2c1 [CORYMBOSIN]
inhibition at 1 µM [1]: < 20%

Cc1nc(-c2ccc(OCC(C)C)c(C#N)c2)sc1C(=O)O [FEBUXOSTAT]
inhibition at 1 µM [1]: 75% | IC50 [12]: 160 nM | Activity [13]: Active | Activity [14]: Active
